Drawing on article PMC8286840, “Identifying SARS-CoV-2 antiviral compounds by screening for small molecule inhibitors of Nsp3 papain-like protease” (Biochemical Journal, 2021), this text covers remaining activity for 29 compounds.

SMILES strings stand for the structures. Counter-ions that a name gives are not always drawn. Like-named read-outs stand apart in the source and are kept apart here.

For assay [1], the target named is T1, SARS-CoV-2 PLpro (nsp3 1564–1878) (Severe acute respiratory syndrome coronavirus 2, UniProt P0DTD1). As to the kind of experiment: biochemical. Conditions: low concentration screen, read-out: % of control remaining. Also noted: FRET-quenched peptide (Pro3) cleavage by PLpro, 10 min pre-incubation, slope over 20 min, normalised to no-compound control.
The target of assay [2] is T1, SARS-CoV-2 PLpro (nsp3 1564–1878). As to the kind of experiment: biochemical. Also on record: FRET-quenched peptide (Pro3) cleavage by PLpro, 10 min pre-incubation, slope over 20 min, normalised to no-compound control. Conditions: high concentration screen, read-out: % of control remaining.

As for `OC[C@@H](O)CN1CCN(c2ccccc2)CC1` [Levodropropizine], the remaining activity at 1.25 µM in assay [1] (Well no.=6189) was 97.3%. Moreover, the remaining activity at 3.75 µM in assay [2] (Well no.=6189) was 82.2%.
In the case of `CCOC(=O)[C@H](CCc1ccccc1)N[C@@H](C)C(=O)N1Cc2cc(OC)c(OC)cc2C[C@H]1C(=O)O` [Moexipril HCl], in assay [1] (Well no.=4760), the remaining activity at 1.25 µM was found to be 97.7%. In assay [2] (Well no.=4760), the remaining activity at 3.75 µM stood at 97.7%.
On to `CO/N=C(\C(=O)N[C@@H]1C(=O)N2C(C(=O)O)=C(Cn3ccc(=N)n3CCO)CS[C@H]12)c1csc(N)n1` [Cefoselis sulfate], for which the remaining activity at 1.25 µM in assay [1] (Well no.=5199) came to 96.6%. Also, the remaining activity at 3.75 µM in assay [2] (Well no.=5199) worked out at 100%.
With `COc1cc(CCN)ccc1O` [3-Methoxytyramine], the remaining activity at 1.25 µM in assay [1] (Well no.=6773) turned out to be 107%. Also, the remaining activity at 3.75 µM in assay [2] (Well no.=6773) came to 97.4%.
`CC1=C(C)C(=O)C(CCCCC#CCCCC#CCO)=C(C)C1=O` [AA-861]: the remaining activity at 1.25 µM is 106% in assay [1] (Well no.=109) and 105% in assay [1] (Well no.=3941). The values for the remaining activity at 3.75 µM in assay [2] (Well no.=109) and in assay [2] (Well no.=3941) were 103% and 102%, respectively.
Take `N#CC1(c2ccc(NC(=O)c3cccnc3NCc3ccncc3)cc2)CCCC1` [Apatinib (YN968D1)]: in assay [1] (Well no.=5156), the remaining activity at 1.25 µM is 101%. Further, in assay [2] (Well no.=5156), the remaining activity at 3.75 µM came out at 102%.
For `CC1(C)CCC(C)(C)c2cc(C3(c4ccc(C(=O)O)cc4)OCCO3)ccc21` [SR11237], the remaining activity at 1.25 µM in assay [1] (Well no.=5768) is 96%. For the same compound, the remaining activity at 3.75 µM in assay [2] (Well no.=5768) came out at 90.6%.
Take `Nc1ccn([C@@H]2CS[C@H](CO)O2)c(=O)n1` [Lamivudine]: the remaining activity at 1.25 µM in assay [1] (Well no.=8142) worked out at 100%. The remaining activity at 3.75 µM in assay [2] (Well no.=8142) amounted to 98.2%.
Turning to `CCn1cc(C(=O)O)c(=O)c2ccc(C)nc21` [Nalidixic acid], in assay [1] (Well no.=3256), the remaining activity at 1.25 µM is 99.8%. For the same compound, in assay [2] (Well no.=3256), the remaining activity at 3.75 µM stood at 99.3%.
As for `CC[C@@H]1C(=O)OC[C@@H]1Cc1cncn1C` [Pilocarpine.HCl], the figures for the remaining activity at 1.25 µM in assay [1] (Well no.=1793) and in assay [1] (Well no.=3729) were 98.6% and 101%, respectively. In addition, the figures for the remaining activity at 3.75 µM in assay [2] (Well no.=1793) and in assay [2] (Well no.=3729) were 98.6% and 105%, respectively.
As for `CCCCCCCC/C=C\CCCCCCCCCC(=O)O` [11(Z)-Eicosenoic acid], the remaining activity at 1.25 µM in assay [1] (Well no.=4406) was 96.4%. Also, in assay [2] (Well no.=4406), the remaining activity at 3.75 µM amounted to 93.7%.
For `COc1cc2c(NC3CCN(C(C)C)CC3)nc(N3CCC(F)(F)CC3)nc2cc1OCCCN1CCCC1` [UNC0642], the remaining activity at 1.25 µM in assay [1] (Well no.=7187) turned out to be 92.5%. The remaining activity at 3.75 µM in assay [2] (Well no.=7187) stood at 86.5%.
Turning to `Cc1ccc(Sc2ccccc2N2CCNCC2)c(C)c1` [Vortioxetine (hydrobromide)], in assay [1] (Well no.=7384), the remaining activity at 1.25 µM was determined as 98.6%. For the same compound, the remaining activity at 3.75 µM in assay [2] (Well no.=7384) came out at 98.7%.
`COc1ccc2c(c1)CC[C@@H]1[C@@H]2CC[C@]2(C)[C@@H](NCCCCCCN3C(=O)CCC3=O)CC[C@@H]12` [U-73343]: the remaining activity at 1.25 µM in assay [1] (Well no.=1380) amounted to 101%. For the same compound, the remaining activity at 3.75 µM in assay [2] (Well no.=1380) is 102%.
As for `CCCNC(C)C(=O)Nc1ccccc1C` (stereo not drawn) [Prilocaine], the remaining activity at 1.25 µM in assay [1] (Well no.=4616) was 100%. For the same compound, the remaining activity at 3.75 µM in assay [2] (Well no.=4616) came to 93.7%.
On to `CC(C)Oc1ccc(-c2nc(-c3cccc4c3CC[C@@H]4NCCO)no2)cc1C#N` [Ozanimod], for which, in assay [1] (Well no.=7422), the remaining activity at 1.25 µM was 104%. For the same compound, the remaining activity at 3.75 µM in assay [2] (Well no.=7422) turned out to be 106%.
In the case of `O=C(O)C(Cc1c[nH]c2ccccc12)N1C(=O)c2ccccc2C1=O` (stereo not drawn) [RG108], the remaining activity at 1.25 µM turned out to be 103% in assay [1] (Well no.=4791) and 88.9% in assay [1] (Well no.=8370). In addition, the results for the remaining activity at 3.75 µM in assay [2] (Well no.=4791) and in assay [2] (Well no.=8370) were 104% and 85.1%, respectively.
Regarding `NC(N)=NCCC[C@H](NC(=O)COCC(c1ccccc1)c1ccccc1)C(=O)O` [SB290157 (trifluoroacetate)], the remaining activity at 1.25 µM in assay [1] (Well no.=8404) is 94.2%. In addition, the remaining activity at 3.75 µM in assay [2] (Well no.=8404) turned out to be 92.8%.
For `CCCN1CCC[C@@H]2Cc3n[nH]cc3C[C@H]21` (racemic), the remaining activity at 1.25 µM in assay [1] (Well no.=1461) was 91%. Further, the remaining activity at 3.75 µM in assay [2] (Well no.=1461) worked out at 88.7%.
As to `NC(=O)NC1NC(=O)NC1=O` (stereo not drawn) [Allantoin], the remaining activity at 1.25 µM in assay [1] (Well no.=6631) is 104%; in assay [1] (Well no.=8145), 106%. Moreover, the remaining activity at 3.75 µM in assay [2] (Well no.=6631) was 106%; in assay [2] (Well no.=8145) it was 97.6%.
In the case of `C[C@]12C=CC(=O)C=C1CC[C@H]1[C@@H]3C[C@@H](O)[C@](O)(C(=O)CO)[C@@]3(C)C[C@H](O)[C@@]12F` [Triamcinolone], the remaining activity at 1.25 µM came out at 98.1% in assay [1] (Well no.=1435), 108% in assay [1] (Well no.=2004) and 94.8% in assay [1] (Well no.=6419). For the same compound, the figures for the remaining activity at 3.75 µM in assay [2] (Well no.=1435), in assay [2] (Well no.=2004) and in assay [2] (Well no.=6419) were 100%, 106% and 96.2%, respectively.
With `Cc1cnc(Nc2ccc(N3CCN(C)CC3)cc2)nc1Nc1cccc(S(=O)(=O)NC(C)(C)C)c1` [TG101209], the remaining activity at 1.25 µM in assay [1] (Well no.=2805) stood at 94%. In addition, the remaining activity at 3.75 µM in assay [2] (Well no.=2805) was 96.7%.
Consider `Clc1cccc(Cl)c1NC1=NCCN1` [Clonidine hydrochloride], for which the remaining activity at 1.25 µM in assay [1] (Well no.=138) came out at 95.3%. Further, in assay [2] (Well no.=138), the remaining activity at 3.75 µM came to 98.8%.
With `Nc1ccn(C[C@@H](CO)OCP(=O)(O)O)c(=O)n1` [Cidofovir (Vistide)], in assay [1] (Well no.=5251), the remaining activity at 1.25 µM was 98.3%. The remaining activity at 3.75 µM in assay [2] (Well no.=5251) turned out to be 101%.
`CCCCCNC(=N)N/N=C/c1c[nH]c2ccc(OC)cc12` [Tegaserod (maleate)]: the remaining activity at 1.25 µM in assay [1] (Well no.=6615) is 103%. For the same compound, in assay [2] (Well no.=6615), the remaining activity at 3.75 µM was determined as 104%.
With `CC(C)[C@H](N)C(=O)N1CCC[C@H]1C(=O)N1CCC[C@H]1C(=O)O` [H-Val-Pro-Pro-OH (TFA)], the remaining activity at 1.25 µM in assay [1] (Well no.=7546) stood at 100%. Besides, the remaining activity at 3.75 µM in assay [2] (Well no.=7546) worked out at 100%.
As to `CCCCNc1cc(C(=O)O)cc(S(N)(=O)=O)c1Oc1ccccc1` [Bumetanide], the remaining activity at 1.25 µM in assay [1] (Well no.=29) worked out at 103%; in assay [1] (Well no.=1909), 100%. Also, the remaining activity at 3.75 µM was 96.8% in assay [2] (Well no.=29) and 99.1% in assay [2] (Well no.=1909).
Regarding `CN1CCc2c(c3ccccc3n2Cc2ccccc2)C1` [Mebhydrolin (napadisylate)], in assay [1] (Well no.=7437), the remaining activity at 1.25 µM was 99.4%. Besides, the remaining activity at 3.75 µM in assay [2] (Well no.=7437) amounted to 94.1%.
For `N#CC(=C(/N)Sc1ccccc1N)/C(C#N)=C(\N)Sc1ccccc1N` [U0126 - 1,4-Diamino-2,3-dicyano-1,4-bis[2-aminophenylthio]butadiene], the remaining activity at 1.25 µM in assay [1] (Well no.=2346) was found to be 96.1%. The remaining activity at 3.75 µM in assay [2] (Well no.=2346) was determined as 96.8%.
